# Experimental data reported in PubChem BioAssay (NCI).
#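 Exposure lasted 48 hours, with cells grown in 96-well plates and compounds tested at five concentrations. At the GI50, growth is halved. TGI is the concentration that stops growth completely.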
# Experiments:
# Assay in all cases: NCI tumour cell line growth inhibition, 48 h
# SF-268 CNS = test system: SF-268 CNS
# SF-295 CNS = test system: SF-295 CNS
# M14 melanoma = test system: M14 melanoma
# U251 CNS = test system: U251 CNS
# NCI-H522 lung = test system: NCI-H522 lung
# HT29 colon = test system: HT29 colon
# KM12 colon = test system: KM12 colon
# MDA-MB-231 breast = test system: MDA-MB-231 breast
# A549 NSCLC = test system: A549 NSCLC
# HCT-15 colon = test system: HCT-15 colon
# UO-31 renal = test system: UO-31 renal
# MALME-3M melanoma = test system: MALME-3M melanoma
# IGROV1 ovarian = test system: IGROV1 ovarian
# SNB-19 CNS = test system: SNB-19 CNS
# SK-MEL-5 melanoma = test system: SK-MEL-5 melanoma
# NCI/ADR-RES ovarian = test system: NCI/ADR-RES ovarian
# SK-MEL-2 melanoma = test system: SK-MEL-2 melanoma
# SW-620 colon = test system: SW-620 colon
# BT-549 breast = test system: BT-549 breast
# SR leukemia = test system: SR leukemia
# TK-10 renal = test system: TK-10 renal
# LOX IMVI melanoma = test system: LOX IMVI melanoma
# SN12C renal = test system: SN12C renal
# HL-60(TB) leukemia = test system: HL-60(TB) leukemia
# DU-145 prostate = test system: DU-145 prostate
# OVCAR-8 ovarian = test system: OVCAR-8 ovarian
# RPMI-8226 leukemia = test system: RPMI-8226 leukemia
# MOLT-4 leukemia = test system: MOLT-4 leukemia
# NCI-H460 lung = test system: NCI-H460 lung
# COLO 205 colon = test system: COLO 205 colon
# PC-3 prostate = test system: PC-3 prostate
# HCT-116 colon = test system: HCT-116 colon
# HCC-2998 colon = test system: HCC-2998 colon
# CCRF-CEM leukemia = test system: CCRF-CEM leukemia
# SK-OV-3 ovarian = test system: SK-OV-3 ovarian
# OVCAR-5 ovarian = test system: OVCAR-5 ovarian
# A498 renal = test system: A498 renal
# T-47D breast = test system: T-47D breast
# K-562 leukemia = test system: K-562 leukemia
# OVCAR-4 ovarian = test system: OVCAR-4 ovarian
# UACC-257 melanoma = test system: UACC-257 melanoma
# SNB-75 CNS = test system: SNB-75 CNS
# 786-0 renal = test system: 786-0 renal
# MCF7 breast = test system: MCF7 breast
# ACHN renal = test system: ACHN renal
# OVCAR-3 ovarian = test system: OVCAR-3 ovarian
# HOP-92 NSCLC = test system: HOP-92 NSCLC
# HOP-62 NSCLC = test system: HOP-62 NSCLC
# NCI-H226 lung = test system: NCI-H226 lung
# UACC-62 melanoma = test system: UACC-62 melanoma
# RXF 393 renal = test system: RXF 393 renal
# SK-MEL-28 melanoma = test system: SK-MEL-28 melanoma
# SF-539 CNS = test system: SF-539 CNS
# NCI-H23 lung = test system: NCI-H23 lung
# MDA-MB-435 = test system: MDA-MB-435
# EKVX NSCLC = test system: EKVX NSCLC
# CAKI-1 renal = test system: CAKI-1 renal
smiles,measurement,setting,value
COc1cc(-c2cncn2-c2ccc(-c3nc4ccc(F)cc4s3)cc2)ccc1F,GI50,SF-268 CNS,31.2 µM
same,TGI,SF-268 CNS,> 100 µM
same,GI50,SF-295 CNS,12.7 µM
same,TGI,SF-295 CNS,> 100 µM
same,GI50,M14 melanoma,33.4 µM
same,TGI,M14 melanoma,> 100 µM
same,GI50,U251 CNS,12.6 µM
same,TGI,U251 CNS,> 100 µM
same,GI50,NCI-H522 lung,9.9 µM
same,TGI,NCI-H522 lung,37.2 µM
same,GI50,HT29 colon,10.8 µM
same,TGI,HT29 colon,> 100 µM
same,GI50,KM12 colon,6.4 µM
same,TGI,KM12 colon,> 100 µM
same,GI50,MDA-MB-231 breast,32.2 µM
same,TGI,MDA-MB-231 breast,> 100 µM
same,GI50,A549 NSCLC,12.3 µM
same,TGI,A549 NSCLC,> 100 µM
same,GI50,HCT-15 colon,82.3 µM
same,TGI,HCT-15 colon,> 100 µM
same,GI50,UO-31 renal,16.5 µM
same,TGI,UO-31 renal,> 100 µM
same,GI50,MALME-3M melanoma,11.1 µM
same,TGI,MALME-3M melanoma,> 100 µM
same,GI50,IGROV1 ovarian,15.4 µM
same,TGI,IGROV1 ovarian,47.7 µM
same,GI50,SNB-19 CNS,> 100 µM
same,TGI,SNB-19 CNS,> 100 µM
same,GI50,SK-MEL-5 melanoma,12.1 µM
same,TGI,SK-MEL-5 melanoma,> 100 µM
same,GI50,NCI/ADR-RES ovarian,30.6 µM
same,TGI,NCI/ADR-RES ovarian,> 100 µM
same,GI50,SK-MEL-2 melanoma,39.7 µM
same,TGI,SK-MEL-2 melanoma,> 100 µM
same,GI50,SW-620 colon,7.81 µM
same,TGI,SW-620 colon,> 100 µM
same,GI50,BT-549 breast,11.5 µM
same,TGI,BT-549 breast,79 µM
same,GI50,SR leukemia,4.99 µM
same,TGI,SR leukemia,> 100 µM
same,GI50,TK-10 renal,38.8 µM
same,TGI,TK-10 renal,> 100 µM
same,GI50,LOX IMVI melanoma,35.9 µM
same,TGI,LOX IMVI melanoma,> 100 µM
same,GI50,SN12C renal,31.9 µM
same,TGI,SN12C renal,> 100 µM
same,GI50,HL-60(TB) leukemia,2.5 µM
same,TGI,HL-60(TB) leukemia,7.37 µM
same,GI50,DU-145 prostate,14.3 µM
same,TGI,DU-145 prostate,73.3 µM
same,GI50,OVCAR-8 ovarian,15.2 µM
same,TGI,OVCAR-8 ovarian,> 100 µM
same,GI50,RPMI-8226 leukemia,4.11 µM
same,TGI,RPMI-8226 leukemia,> 100 µM
same,GI50,MOLT-4 leukemia,3.41 µM
same,TGI,MOLT-4 leukemia,> 100 µM
same,GI50,NCI-H460 lung,5.7 µM
same,TGI,NCI-H460 lung,20.7 µM
same,GI50,COLO 205 colon,56.8 µM
same,TGI,COLO 205 colon,> 100 µM
same,GI50,PC-3 prostate,3.47 µM
same,TGI,PC-3 prostate,> 100 µM
same,GI50,HCT-116 colon,4.36 µM
same,TGI,HCT-116 colon,38.7 µM
same,GI50,HCC-2998 colon,> 100 µM
same,TGI,HCC-2998 colon,> 100 µM
same,GI50,CCRF-CEM leukemia,6.92 µM
same,TGI,CCRF-CEM leukemia,> 100 µM
same,GI50,SK-OV-3 ovarian,> 100 µM
same,TGI,SK-OV-3 ovarian,> 100 µM
same,GI50,OVCAR-5 ovarian,> 100 µM
same,TGI,OVCAR-5 ovarian,> 100 µM
same,GI50,A498 renal,0.0432 µM
same,TGI,A498 renal,16.9 µM
same,GI50,T-47D breast,7.98 µM
same,TGI,T-47D breast,> 100 µM
same,GI50,K-562 leukemia,3.93 µM
same,TGI,K-562 leukemia,> 100 µM
same,GI50,OVCAR-4 ovarian,11.4 µM
same,TGI,OVCAR-4 ovarian,> 100 µM
same,GI50,UACC-257 melanoma,4.11 µM
same,TGI,UACC-257 melanoma,> 100 µM
same,GI50,SNB-75 CNS,20.6 µM
same,TGI,SNB-75 CNS,52.2 µM
same,GI50,786-0 renal,36.1 µM
same,TGI,786-0 renal,> 100 µM
same,GI50,MCF7 breast,23.5 µM
same,TGI,MCF7 breast,> 100 µM
same,GI50,ACHN renal,29.1 µM
same,TGI,ACHN renal,> 100 µM
same,GI50,OVCAR-3 ovarian,5.71 µM
same,TGI,OVCAR-3 ovarian,37.3 µM
same,GI50,HOP-92 NSCLC,5.47 µM
same,TGI,HOP-92 NSCLC,91.8 µM
same,GI50,HOP-62 NSCLC,40.7 µM
same,TGI,HOP-62 NSCLC,> 100 µM
same,GI50,NCI-H226 lung,49.3 µM
same,TGI,NCI-H226 lung,> 100 µM
same,GI50,UACC-62 melanoma,8.67 µM
same,TGI,UACC-62 melanoma,> 100 µM
same,GI50,RXF 393 renal,13.5 µM
same,TGI,RXF 393 renal,> 100 µM
same,GI50,SK-MEL-28 melanoma,35.1 µM
same,TGI,SK-MEL-28 melanoma,> 100 µM
same,GI50,SF-539 CNS,75.9 µM
same,TGI,SF-539 CNS,> 100 µM
same,GI50,NCI-H23 lung,8.25 µM
same,TGI,NCI-H23 lung,> 100 µM
same,GI50,MDA-MB-435,17.1 µM
same,TGI,MDA-MB-435,> 100 µM
CCOC(=O)c1c2c(n(Cc3ccc(Cl)cc3Cl)c1C)-c1nc(Cc3ccccc3)[nH]c1C(=O)C2=O,GI50,SF-268 CNS,1.94 µM
same,TGI,SF-268 CNS,4.28 µM
same,GI50,SF-295 CNS,1.99 µM
same,TGI,SF-295 CNS,4.59 µM
same,GI50,M14 melanoma,2.3 µM
same,TGI,M14 melanoma,5.05 µM
same,GI50,U251 CNS,2.11 µM
same,TGI,U251 CNS,4.62 µM
same,GI50,NCI-H522 lung,2.2 µM
same,TGI,NCI-H522 lung,4.68 µM
same,GI50,HT29 colon,2.72 µM
same,TGI,HT29 colon,8.61 µM
same,GI50,KM12 colon,1.47 µM
same,TGI,KM12 colon,2.89 µM
same,GI50,MDA-MB-231 breast,1.93 µM
same,TGI,MDA-MB-231 breast,3.56 µM
same,GI50,A549 NSCLC,3.84 µM
same,TGI,A549 NSCLC,> 100 µM
same,GI50,HCT-15 colon,2.15 µM
same,TGI,HCT-15 colon,4.64 µM
same,GI50,MALME-3M melanoma,2 µM
same,TGI,MALME-3M melanoma,3.66 µM
same,GI50,IGROV1 ovarian,2.31 µM
same,TGI,IGROV1 ovarian,5.07 µM
same,GI50,SNB-19 CNS,3.51 µM
same,TGI,SNB-19 CNS,45.2 µM
same,GI50,SK-MEL-5 melanoma,1.8 µM
same,TGI,SK-MEL-5 melanoma,3.27 µM
same,GI50,NCI/ADR-RES ovarian,3.19 µM
same,TGI,NCI/ADR-RES ovarian,10.6 µM
same,GI50,SK-MEL-2 melanoma,2.83 µM
same,TGI,SK-MEL-2 melanoma,9.2 µM
same,GI50,SW-620 colon,2.11 µM
same,TGI,SW-620 colon,4.07 µM
same,GI50,BT-549 breast,2.07 µM
same,TGI,BT-549 breast,3.87 µM
same,GI50,SR leukemia,1.78 µM
same,TGI,SR leukemia,3.82 µM
same,GI50,TK-10 renal,2.12 µM
same,TGI,TK-10 renal,3.65 µM
same,GI50,SN12C renal,2.22 µM
same,TGI,SN12C renal,4.75 µM
same,GI50,HL-60(TB) leukemia,1.57 µM
same,TGI,HL-60(TB) leukemia,3.71 µM
same,GI50,DU-145 prostate,1.78 µM
same,TGI,DU-145 prostate,3.3 µM
same,GI50,OVCAR-8 ovarian,3.49 µM
same,TGI,OVCAR-8 ovarian,50.4 µM
same,GI50,RPMI-8226 leukemia,2.25 µM
same,TGI,RPMI-8226 leukemia,4.65 µM
same,GI50,MOLT-4 leukemia,1.94 µM
same,TGI,MOLT-4 leukemia,4.87 µM
same,GI50,NCI-H460 lung,2.27 µM
same,TGI,NCI-H460 lung,4.9 µM
same,GI50,COLO 205 colon,2.42 µM
same,TGI,COLO 205 colon,5.85 µM
same,GI50,PC-3 prostate,1.92 µM
same,TGI,PC-3 prostate,4.9 µM
same,GI50,HCT-116 colon,1.68 µM
same,TGI,HCT-116 colon,3.07 µM
same,GI50,HCC-2998 colon,1.93 µM
same,TGI,HCC-2998 colon,3.78 µM
same,GI50,CCRF-CEM leukemia,1.81 µM
same,TGI,CCRF-CEM leukemia,4.45 µM
same,GI50,SK-OV-3 ovarian,5.02 µM
same,TGI,SK-OV-3 ovarian,19.3 µM
same,GI50,OVCAR-5 ovarian,2.25 µM
same,TGI,OVCAR-5 ovarian,4.56 µM
same,GI50,T-47D breast,2.65 µM
same,TGI,T-47D breast,33.3 µM
same,GI50,K-562 leukemia,1.97 µM
same,TGI,K-562 leukemia,5.25 µM
same,GI50,OVCAR-4 ovarian,1.87 µM
same,TGI,OVCAR-4 ovarian,4.8 µM
same,GI50,SNB-75 CNS,1.88 µM
same,TGI,SNB-75 CNS,3.63 µM
same,GI50,786-0 renal,1.82 µM
same,TGI,786-0 renal,3.47 µM
same,GI50,MCF7 breast,2.55 µM
same,TGI,MCF7 breast,6.08 µM
same,GI50,EKVX NSCLC,2.24 µM
same,TGI,EKVX NSCLC,4.49 µM
same,GI50,ACHN renal,1.75 µM
same,TGI,ACHN renal,3.17 µM
same,GI50,OVCAR-3 ovarian,1.8 µM
same,TGI,OVCAR-3 ovarian,3.6 µM
same,GI50,HOP-92 NSCLC,1.62 µM
same,TGI,HOP-92 NSCLC,3.06 µM
same,GI50,HOP-62 NSCLC,2.32 µM
same,TGI,HOP-62 NSCLC,5.48 µM
same,GI50,CAKI-1 renal,2.31 µM
same,TGI,CAKI-1 renal,4.01 µM
same,GI50,NCI-H226 lung,2.19 µM
same,TGI,NCI-H226 lung,4.68 µM
same,GI50,UACC-62 melanoma,1.82 µM
same,TGI,UACC-62 melanoma,3.48 µM
same,GI50,SK-MEL-28 melanoma,1.69 µM
same,TGI,SK-MEL-28 melanoma,3.3 µM
same,GI50,SF-539 CNS,2.14 µM
same,TGI,SF-539 CNS,3.97 µM
same,GI50,NCI-H23 lung,2.03 µM
same,TGI,NCI-H23 lung,4.29 µM
same,GI50,MDA-MB-435,1.99 µM
same,TGI,MDA-MB-435,3.75 µM
